The source of these data is patent publication US9809623B2, “α4β7 peptide monomer and dimer antagonists” (Protagonist Therapeutics, Inc., priority 2014, dated 2017).

A word on the IC50: it is the concentration at which inhibition is half-maximal.

Data set [1] concerns the target T1, α4β7 (Homo sapiens, UniProt P13612+P26010). As to the kind of experiment: PBMC Memory T Cell Adhesion Assay, adhesion to MAdCAM-1. Type of data set: cell-based. The note with it: Table 3-B; range classes; read-out: PBMC IC50. The protocol:
Fresh CD4+/CD45RO+ memory T cells were isolated from human peripheral blood mononuclear cell (PBMC) donors by Aragen Bioscience Inc. (Morgan Hill, Calif.). The assay plate was prepared using IgG Fc capture antibody (donkey anti human) immobilized at 500 ng/well in 50 mM sodium bicarbonate buffer, pH 9.5, ON, 4C onto a Greiner Fluotrac plate (100 ul per well). The plate was rinsed two time with Blocking Buffer (25 mM Tris HCl, pH7.5, 150 mM NaCl, 1.5% BSA, 0.05% Tween), and blocked with Blocking Buffer for 2 hours at 37 C or 5 hours at RT using 200 ul per well. The Blocking Buffer was removed and either MAdCAM-1 or VCAM-1 at 400 ng/well in Blocking Buffer was added and the plate incubated overnight at 4C (100 ul per well). The plate was washed two times with Blocking Buffer, and rinsed once with 200 ul Binding Media (DMEM phenol red free, 10 mM HEPES, 1×Na pyruvate, 1× Glutamine, and supplemented with 1 mM MnCl2 prior to use). To prepare cells, approximately 25 million CD4+/CD45RO+ memory T cells were counted by trypan blue exclusion using a haemocytometer to determine viability and cell count. The cells were transferred to a 50 ml conical tube, and centrifuged at 1200 rpm for 10 minute. The media was aspirated and the cell pellet resuspended in 15 ml Binding Media. The cells were centrifuged again and resuspended in the appropriate amount of Binding Media to be used for assays (50 ul of cells per well at 2× the final density). To each well, and equal volume (50 ul) of test compound was added and the plate was incubated for 1.5 hours at 37 C, 5% CO2. Each well was rinsed 3× with 150 ul per well of Binding Media. […] The plate was incubated at 37 C, 5% CO2, for 45 minutes. The plate was protected from light by using black adhesive seals. Fluorescence intensity was measured using a Molecular Devices Gemini EM Fluorescent Plate Reader (Ex 485/Em530, Bottom Read, Reading Sensitivity=20). IC50 curves are generated using Graph Pad Prism and the curves analyzed using analyzed using a non-linear regression (four parameters) algorithm. The log (concentration) versus RFU (Ex485/Em530) was plotted to determine IC50 values.

Data set [2] addresses T1, α4β7. Nature of the data set: α4β7-MAdCAM Cell Adhesion Assay (RPMI 8866 human cells). Type of data set: cell-based. Also on record: host or cells: RPMI 8866 human B lymphoblastoid cells. The note with it: Table 3-B, Potency (α4β7); range classes; read-out: α4β7 cell (Hu) IC50. In outline: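 Washed RPMI 8866 cells (200,000/well) in DMEM with 0.1% BSA, 10 mM HEPES pH 7, 1 mM MnCl2 adhered to rh MAdCAM-1/Fc-coated wells with serially diluted peptides, 30-45 min at 37 °C. After three washes, bound cells quantified by MTT, A570, cell-free background subtracted for dose response.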

Data set [3] in a line: Simulated Intestinal Fluid (SIF) Stability Assay. The class given is in vitro ADME, porcine. The note with it: pig, simulated intestinal fluid (SIF) with 1% porcine pancreatin, pH 6.5, Table 3-B; > means experiment was stopped at that time and half life was not reached; read-out: Stabilty SIF t1/2. In outline:
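Peptides (22 μM final) incubated at 37 °C in FASSIF (pH 6.5) with 1% porcine pancreatin; aliquots quenched at various times and analyzed by LC-MS/MS against internal standard. Half-life from first-order exponential decay fit of percent remaining.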

In data set [4] the test system is cell types in human whole blood. As to the kind of experiment: FACS binding specificity in human whole blood. Type of data set: cell-based. The note with it: 1 nM, 1 mM MnCl2. The protocol: To further evaluate the selectivity of Peptide X in human blood, the fluorescent dye Alexa 647 was conjugated to Peptide X at the same position used for attaching biotin. […] Heparinized human whole blood was supplemented with 1 mM MnCl2, and stained with the Peptide X-Alexa 647 conjugate or biotinylated vedolizumab for 1 hour at room temperature. The samples were fixed (red blood cells lysed) and washed. The vedolizumab samples were stained separately with streptavidin Alexa 647 for stain for 30 minutes at room temperature. FACS analysis was used to assess binding of the peptide or vedolizumab to a broad panel of cell types including NK cells, basophils, monocytes, eosinophils, neutrophils, CD4 naïve T cells, CD4 memory T cells, CD8 naïve T cells, CD8 memory T cells, and B cells. […] The binding specificity for vedolizmab shown in Table 7 is also very similar to that reported in the literature (Soler et al, JPET 330:864-875, 2009).

The target in another data set is T2, α4β1 (Homo sapiens, UniProt P05556+P13612, DEL729-798).
T2 construct: purchased R&D Systems 5668-A4
As to the kind of experiment: α4β1-VCAM Competition ELISA. The class given is binding. The following applies: Table 3-B, Selectivity (α4β1); range classes; read-out: α4β1 ELISA IC50. In outline:
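Recombinant α4β1 (60 nM final) competed with serially diluted peptides (top final 100 μM) for VCAM-1 Fc coated at 400 ng/well, in Tris pH 7.6 with 1 mM MnCl2 or MgCl2, for 2 h at 37 °C. Bound integrin was detected with anti-CD49d 9F10 plus HRP anti-mouse IgG, using TMB read at 450 nm.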
(In general: ELISA stands for enzyme-linked immunosorbent assay.)

Data set [5] deals with T3, α4β7 (Mus musculus, UniProt P26011+Q00651).
T3 construct: host or cells: TK1 mouse T cells
As to the kind of experiment: α4β7 Cell Adhesion Assay (Mouse), TK1 cells. The class given is cell-based. The following applies: Table 3-B, Potency (α4β7); range classes; read-out: α4β7 cell(MU) IC50. The protocol: TK1 cells (ATCC # ATCC-CRL-2396) were cultured in RPMI 1640 with 2 mM L-glutamine adjusted to contain 1.5 g/L sodium bicarbonate, 4.5 g/L glucose, 10 mM HEPES, and 1.0 mM sodium pyruvate (ATCC#30-2001) and supplemented with 0.1 mM non-essential amino acids, (ATCC #30-2116) 0.05 mM 2-mercaptoethanol (Invitrogen #21985) and 10% serum (Fetal Bovine Serum, Invitrogen #16140-071), and Penicillin-Streptomycin (Invitrogen #15140-122) at 100 units of penicillin and 100 μg of streptomycin per ml. The cells were washed two times in DMEM medium (ATCC #30-2002) supplemented with 0.1% BSA, 10 mM HEPES pH 7 and 1 mM MnCl2. The cells were re-suspended in supplemented DMEM medium at a density of 4×10^6 cells/ml.
A Nunc MaxiSorp plate was coated with Recombinant human MAdCAM-1 Fc Chimera (R&D #6065-MC) at 200 ng per well in 100 μl per well in 1×PBS and incubated at 4° C. overnight. The solution was then removed by shaking, blocked with 250 ul per well PBS containing 1% BSA, and incubated at 37° C. for 1 hr. The solution was removed by shaking. DATK 32 (anti-mouse α4β7) and peptides were diluted by serial dilution in a final volume of 50 ul per well (2× concentration). To each well, 50 ul of cells (200,000 cells) are added and the plate is incubated at 37° C., 5% CO2 for 30-45 min to allow cell adhesion. The plate was manually washed three times with supplemented DMEM, 100 ul per wash. After the final wash, 100 ul/well of supplemented DMEM and […] of MTT reagent (ATTC cat#30-1010K) was added to each well. Wells were incubated at 37° C. with 5% CO2 for 2-3 hrs until purple precipitate was visible. 100 μl of Detergent Reagent (ATTC cat#30-1010K) was added to each well. The plate was then wrapped with Para film to prevent evaporation, and left overnight at room temperature in the dark. The plate was shaken for 5 min and the absorbance at 570 nm was measured. To calculate the dose response, the absorbance value of control wells not containing cells was subtracted from each test well.

Numbered stars: 1 amine (or outer) side, 2 acyl side, 3 side chain; on linkers, the order of the positions; unused ones are H or OH. Bridge positions count the residues as written; N and C are the ends. Square brackets hold non-standard residues; d marks the D form. Peptide text beside a SMILES is read from it. I, II: the chains in the order shown. Phe(4-tBu) = CC(C)(C)c1ccc(C[C@H](N)C(=O)O)cc1; Diglycolyl = O=C(COCC(=O)[*:2])[*:1]; NMeR = CN[C@@H](CCCNC(=N)N)C(=O)O; β3hE = N[C@@H](CCC(=O)O)CC(=O)O; Pen = CC(C)(S)[C@H](N)C(=O)O

T1 sequence (P13612 34-1032): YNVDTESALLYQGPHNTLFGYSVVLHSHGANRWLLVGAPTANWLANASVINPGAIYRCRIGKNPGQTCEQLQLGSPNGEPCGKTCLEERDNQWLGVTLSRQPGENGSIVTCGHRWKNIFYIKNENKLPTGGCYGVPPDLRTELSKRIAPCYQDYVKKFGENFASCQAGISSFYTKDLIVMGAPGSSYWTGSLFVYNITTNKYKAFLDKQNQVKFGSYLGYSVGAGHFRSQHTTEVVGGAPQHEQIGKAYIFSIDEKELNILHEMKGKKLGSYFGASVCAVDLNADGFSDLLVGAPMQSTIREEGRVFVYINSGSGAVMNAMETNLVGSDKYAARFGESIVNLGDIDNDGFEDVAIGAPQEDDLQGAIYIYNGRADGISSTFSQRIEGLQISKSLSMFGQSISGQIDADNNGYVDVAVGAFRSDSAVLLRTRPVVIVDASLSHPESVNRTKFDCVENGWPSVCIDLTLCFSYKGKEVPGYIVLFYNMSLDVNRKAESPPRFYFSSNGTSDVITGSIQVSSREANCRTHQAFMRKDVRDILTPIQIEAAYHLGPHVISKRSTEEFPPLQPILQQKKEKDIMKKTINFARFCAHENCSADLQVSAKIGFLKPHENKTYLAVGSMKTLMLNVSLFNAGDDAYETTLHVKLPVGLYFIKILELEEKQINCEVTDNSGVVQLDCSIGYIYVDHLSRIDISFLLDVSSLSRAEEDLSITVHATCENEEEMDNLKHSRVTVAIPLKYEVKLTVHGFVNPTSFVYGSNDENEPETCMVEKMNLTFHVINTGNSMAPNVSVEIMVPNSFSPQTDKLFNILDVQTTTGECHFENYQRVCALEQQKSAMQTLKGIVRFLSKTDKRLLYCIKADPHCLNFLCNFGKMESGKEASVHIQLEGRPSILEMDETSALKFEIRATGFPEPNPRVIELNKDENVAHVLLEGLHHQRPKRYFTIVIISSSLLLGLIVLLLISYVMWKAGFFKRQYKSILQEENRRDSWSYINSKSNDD
T1 sequence (P26010 20-798): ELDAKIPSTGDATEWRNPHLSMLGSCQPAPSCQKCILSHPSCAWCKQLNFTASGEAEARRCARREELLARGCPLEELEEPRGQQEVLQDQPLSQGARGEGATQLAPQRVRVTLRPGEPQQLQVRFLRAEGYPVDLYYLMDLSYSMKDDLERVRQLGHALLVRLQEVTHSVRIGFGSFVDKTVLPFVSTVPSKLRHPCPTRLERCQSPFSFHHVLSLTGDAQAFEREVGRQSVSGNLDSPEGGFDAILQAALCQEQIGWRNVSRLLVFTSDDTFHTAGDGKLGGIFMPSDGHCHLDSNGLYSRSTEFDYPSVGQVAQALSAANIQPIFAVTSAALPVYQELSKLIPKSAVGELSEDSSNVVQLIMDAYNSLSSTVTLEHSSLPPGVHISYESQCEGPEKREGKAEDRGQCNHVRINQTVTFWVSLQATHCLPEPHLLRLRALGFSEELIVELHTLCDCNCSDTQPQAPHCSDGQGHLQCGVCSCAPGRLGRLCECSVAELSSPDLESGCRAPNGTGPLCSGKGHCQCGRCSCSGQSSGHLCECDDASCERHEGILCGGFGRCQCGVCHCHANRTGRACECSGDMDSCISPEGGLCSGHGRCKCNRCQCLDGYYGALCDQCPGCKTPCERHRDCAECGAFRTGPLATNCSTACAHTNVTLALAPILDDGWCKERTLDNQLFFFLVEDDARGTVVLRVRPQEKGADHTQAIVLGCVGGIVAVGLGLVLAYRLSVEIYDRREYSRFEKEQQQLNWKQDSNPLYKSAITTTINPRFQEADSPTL
T3 sequence (Q00651 34-1039 limits assumed): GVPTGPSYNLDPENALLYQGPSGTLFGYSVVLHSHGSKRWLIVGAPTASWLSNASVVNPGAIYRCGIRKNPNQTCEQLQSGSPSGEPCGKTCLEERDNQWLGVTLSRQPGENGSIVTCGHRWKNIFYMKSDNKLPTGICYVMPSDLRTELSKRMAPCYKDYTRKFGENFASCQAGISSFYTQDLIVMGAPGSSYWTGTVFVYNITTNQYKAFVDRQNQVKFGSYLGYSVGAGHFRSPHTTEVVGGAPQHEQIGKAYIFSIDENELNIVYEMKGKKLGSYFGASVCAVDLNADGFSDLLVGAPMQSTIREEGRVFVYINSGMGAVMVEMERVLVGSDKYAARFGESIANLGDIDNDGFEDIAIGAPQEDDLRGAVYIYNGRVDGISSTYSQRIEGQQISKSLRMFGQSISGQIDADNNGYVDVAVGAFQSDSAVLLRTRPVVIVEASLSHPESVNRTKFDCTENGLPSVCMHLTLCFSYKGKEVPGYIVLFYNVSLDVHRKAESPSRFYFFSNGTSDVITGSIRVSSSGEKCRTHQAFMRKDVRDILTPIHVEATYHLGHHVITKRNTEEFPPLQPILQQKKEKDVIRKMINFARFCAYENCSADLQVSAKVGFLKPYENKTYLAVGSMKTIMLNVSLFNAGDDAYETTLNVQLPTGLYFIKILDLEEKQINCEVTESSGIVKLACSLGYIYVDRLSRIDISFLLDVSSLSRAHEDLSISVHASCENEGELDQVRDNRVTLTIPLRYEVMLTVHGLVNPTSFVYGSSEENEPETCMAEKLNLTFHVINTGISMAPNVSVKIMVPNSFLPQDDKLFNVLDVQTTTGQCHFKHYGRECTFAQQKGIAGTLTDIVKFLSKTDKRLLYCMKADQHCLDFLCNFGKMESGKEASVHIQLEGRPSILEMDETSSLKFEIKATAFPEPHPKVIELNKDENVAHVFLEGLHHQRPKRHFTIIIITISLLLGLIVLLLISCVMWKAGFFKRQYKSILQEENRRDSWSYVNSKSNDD
T3 sequence (P26011 20-806): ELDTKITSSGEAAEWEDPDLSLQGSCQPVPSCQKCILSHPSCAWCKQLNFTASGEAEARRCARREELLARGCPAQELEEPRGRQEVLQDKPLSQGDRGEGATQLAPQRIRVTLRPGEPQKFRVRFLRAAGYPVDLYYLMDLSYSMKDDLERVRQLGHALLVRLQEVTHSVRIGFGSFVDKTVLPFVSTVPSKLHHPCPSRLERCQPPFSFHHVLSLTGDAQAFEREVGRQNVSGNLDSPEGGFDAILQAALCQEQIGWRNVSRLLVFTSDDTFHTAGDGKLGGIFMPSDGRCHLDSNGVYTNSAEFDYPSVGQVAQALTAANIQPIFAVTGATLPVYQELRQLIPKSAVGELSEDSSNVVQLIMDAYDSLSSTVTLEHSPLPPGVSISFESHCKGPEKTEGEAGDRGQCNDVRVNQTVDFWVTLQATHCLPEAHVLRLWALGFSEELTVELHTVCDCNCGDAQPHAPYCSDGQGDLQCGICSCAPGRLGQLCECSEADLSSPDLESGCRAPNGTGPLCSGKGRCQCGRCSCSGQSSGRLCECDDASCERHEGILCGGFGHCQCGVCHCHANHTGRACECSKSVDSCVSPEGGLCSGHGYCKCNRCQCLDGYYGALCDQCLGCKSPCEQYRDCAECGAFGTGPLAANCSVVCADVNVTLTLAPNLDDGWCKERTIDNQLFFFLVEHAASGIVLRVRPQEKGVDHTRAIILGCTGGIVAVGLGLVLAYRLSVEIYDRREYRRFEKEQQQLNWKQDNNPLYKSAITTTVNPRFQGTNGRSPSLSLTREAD

Take `CC(=O)N[C@@H]1C(=O)N(C)[C@@H](CCCNC(=N)N)C(=O)N[C@@H](CO)C(=O)N[C@@H](CC(=O)O)C(=O)N[C@@H]([C@@H](C)O)C(=O)N[C@@H](CC(C)C)C(=O)N[C@H](C(=O)N[C@@H](Cc2ccc(C(C)(C)C)cc2)C(=O)N[C@@H](CCC(=O)O)CC(N)=O)C(C)(C)SSC1(C)C` [compound 165] (Ac-[Pen][NMeR]SDTL[Pen][Phe(4-tBu)][β3hE]-NH2; disulfide 1-7): the IC50 at α4β7 [1] was 100 to 500 nM; at α4β7 [2], 10 to 25 nM. For the same compound, in data set [3], the half-life at 22 μM was > 3 h.
On to `CC(=O)N[C@@H]1C(=O)N(C)[C@@H](CCCNC(=N)N)C(=O)N[C@@H](CO)C(=O)N[C@@H](CC(=O)O)C(=O)N[C@@H]([C@@H](C)O)C(=O)N[C@@H](CC(C)C)C(=O)N[C@H](C(=O)N[C@@H](Cc2ccc(C(C)(C)C)cc2)C(=O)N[C@@H](CCC(=O)O)CC(=O)N[C@H](CCCCNC(=O)CN(CC(=O)NCCCC[C@@H](NC(=O)C[C@H](CCC(=O)O)NC(=O)[C@H](Cc2ccc(C(C)(C)C)cc2)NC(=O)[C@H]2NC(=O)[C@H](CC(C)C)NC(=O)[C@H]([C@@H](C)O)NC(=O)[C@H](CC(=O)O)NC(=O)[C@H](CO)NC(=O)[C@H](CCCNC(=N)N)N(C)C(=O)[C@@H](NC(C)=O)C(C)(C)SSC2(C)C)C(N)=O)C(=O)CCN)C(N)=O)C(C)(C)SSC1(C)C` [compound 166], for which the IC50 on α4β7 [1] and at α4β7 [2] was < 10 nM throughout.
Take vedolizumab [reference compound]: in data set [4], the “Percent positive staining, Basophils” value was determined as 86%; the “Percent positive staining, CD4 memory T cells” value is on record as 22%; the “Percent positive staining, CD4 naïve T cells” value came to 55%; the “Percent positive staining, CD8 memory T cells” value was found to be 36%. Moreover, in data set [4], the “Percent positive staining, CD8 naïve T cells” value amounted to 53%; the “Percent positive staining, CD19+ B cells” value came to 85%; the “Percent positive staining, Eosinophils” value is listed as 91%; the “Percent positive staining, Monocytes” value was 7%. In addition, in data set [4], the “Percent positive staining, NK cells CD16+ 56+” value is 42% and the “Percent positive staining, Neutrophils” value worked out at 0.45%.
As for `CC(=O)N[C@@H]1C(=O)N(C)[C@@H](CCCNC(=N)N)C(=O)N[C@@H](CO)C(=O)N[C@@H](CC(=O)O)C(=O)N[C@@H]([C@@H](C)O)C(=O)N[C@@H](CC(C)C)C(=O)N[C@H](C(=O)N[C@@H](Cc2ccc(C(C)(C)C)cc2)C(=O)N[C@@H](CCC(=O)O)CC(=O)N[C@H](CCCCNC(=O)COCC(=O)NCCCC[C@@H](NC(=O)C[C@H](CCC(=O)O)NC(=O)[C@H](Cc2ccc(C(C)(C)C)cc2)NC(=O)[C@H]2NC(=O)[C@H](CC(C)C)NC(=O)[C@H]([C@@H](C)O)NC(=O)[C@H](CC(=O)O)NC(=O)[C@H](CO)NC(=O)[C@H](CCCNC(=N)N)N(C)C(=O)[C@@H](NC(C)=O)C(C)(C)SSC2(C)C)C(=O)O)C(=O)O)C(C)(C)SSC1(C)C` [compound 168] (I: Ac-[Pen][NMeR]SDTL[Pen][Phe(4-tBu)][β3hE][dK]-OH / II: Ac-[Pen][NMeR]SDTL[Pen][Phe(4-tBu)][β3hE][dK]-OH; disulfide I:1-I:7, II:1-II:7; linker I:10-II:10 via Diglycolyl), the IC50 on α4β7 [1] and at α4β7 [2] was < 10 nM in each case.
In the case of `CC(=O)N[C@@H]1C(=O)N(C)[C@@H](CCCNC(=N)N)C(=O)N[C@@H](CO)C(=O)N[C@@H](CC(=O)O)C(=O)N[C@@H]([C@@H](C)O)C(=O)N[C@@H](CC(C)C)C(=O)N[C@H](C(=O)N[C@@H](Cc2c[nH]c3ccccc23)C(=O)N[C@@H](CCC(=O)O)CC(=O)O)C(C)(C)SSC1(C)C` [compound 146] (Ac-[Pen][NMeR]SDTL[Pen]W[β3hE]-OH; disulfide 1-7), the IC50 on α4β1 was in the range of 1000 to 10000 nM; on α4β7 [5], 50 to 100 nM; on α4β7 [2], 50 to 100 nM.
